Source: patent publication US8158811B2, “Unsaturated fatty hydroxy acid derivatives and the dermocosmetologic use thereof” (Pierre Fabre Dermo-Cosmetique, priority 2005, dated 2012)

Columns and labels:
[1] = test system: ABCG1; assay: keratinocyte differentiation, real-time RT-PCR of ABCG1 transcripts; assay type: cell-based, human; details: NHK, 48 hours
Experimental: Normal human keratinocytes (NHK) proliferate and differentiate in vitro, forming stratified layers which mimic the basal organisation of the skin. Extracellular calcium concentrations in excess of 0.1 mM initiate a cascade of genome and non-genome events which take the keratinocytes from a proliferative phase towards a differentiation phase. Keratinocyte differentiation can then be evaluated by studying the expression of several markers such as keratins 1 and 10, transglutaminase 1, desaturase DES2, involucrine, FATP4 and ABCG1 transporters. We therefore evaluated the effect of certain hydroxyalcene carboxylic acids in an in vitro culture model.
Normal human keratinocytes are isolated from skin explants. They are cultured in KSFM medium (Gibco) with a low calcium content (0.1 mM) containing 25 μg/ml of BPE (bovine pituitary extract) and […] of EGF (epithelium growth factor). 24 hours after culturing, differentiation is triggered by the addition of calcium (final concentration 1.2 mM). The active ingredients are added or not at the same time as calcium at concentrations of 100 and 1 μg/ml in order to determine whether or not they have a potentialising effect on differentiation. Cells were then analysed 48 hours after the addition of calcium and these products.
Total RNA was extracted under cold conditions from keratinocytes.
After reverse transcription of mRNA into cDNA, PCRs were made up in 96 well plates (iCycler quantitative PCR apparatus, BioRad). Expression of transcripts of transglutaminase, desaturase (DES2), ABCG1 and FATP4 were standardized with respect to the expression of reference genes (GAPDH, UBC, HPRT).

[2] = test system: intracellular AOSs, fibroblast line L929; assay: in vitro assay of intracellular AOSs (H2DCF-DA probe) after H2O2/iron oxidative stress; assay type: cell-based, murin; details: pre-incubation 3 h, L929
Excerpt: We set up an in vitro study model of oxidative stress induced by H2O2/iron as H2O2 generates huge amounts of intracellular AOSs as a result of a chain reaction triggered by oxidation of membrane lipids.
This technique is based on the use of a fluorescent probe, 6-carboxy-2′,7′-dichlorodihydro fluorescein diacetate, di (acetoxymethyl ester) (H2DCF-DA) which once it penetrates into the cell is deacetylated by intracellular esterases and thus forms H2DCF. This product is oxidized by intracellular AOSs into a highly fluorescent compound: 2′,7′-dichlorofluorescein (DCF) (Suematsu M et al., 1996, Free Radicals Practical Approach, Punchard ed. P 83-99).
The materials and methods used for in vitro assay of intracellular AOSs are given below. • a) Cell tool • Cutaneous murin fibroblast cell line L929. • b) Materials • 96 well flat based microplate. • Cytofluor II cytofluorameter: Ref. PERCEPTIVE BIOSYSTEMS. • c) Reagents • Cell culture reagents: • Dulbecco's Modified Eagle Medium as the culture medium (DMEM) • Foetal calf serum • Phosphate buffer PBS pH 7.4 • Trypsin EDTA (1X) Fluorescent probe • 6-carboxy-2′,7′-dichlorodihydrofluorescein diacetate, di(acetoxymethyl ester) (PM.675,43) Cell stimulation products • Hydrogen peroxide (H2O2) 3% Ref. GIFRER (Gifrer Barbezat Laboratory) • Ferrous ammonium sulphate (Fe^2+) • Ferric ammonium sulphate (Fe^3+) • d) Products tested:
For the evaluation of unsaturated fatty hydroxy acid derivatives, the dilutions are prepared in freshly prepared culture medium for a concentration range of 0.02, 0.2, 2 and 20 ng/ml. • e) Protocol. Cell culturing.
Cells from the fibroblast line L929 were cultured in 96-well flat base microplates in 100 μl of DMEM supplemented with 10% foetal calf serum. These were incubated overnight at 37° C. in a humid atmosphere at 5% CO2. The blank plate without cells was evaluated using 6 wells.
Dilutions of the products to be tested and reference molecule were made up in culture medium without foetal calf serum then deposited in 7 wells at a rate of 100 μl per well.
Cells were then incubated for 3 hours at 37° C. in a humid atmosphere at 5% CO2.
Cells were rinsed in PBS 1X at a rate of 100 μl per well. They were then incubated for 30 minutes at 37° C. in a humid atmosphere at 5% CO2 with 50 μl of the H2DCF-DA probe at 5 μM.
After 30 minutes of contact with the probe alone, cells were incubated for 30 minutes at 37° C. in a humid atmosphere at 5% CO2 with the addition of 25 μl of H2O2 at 800 μM and 25 μl of ferrous iron and ferric iron solution at 8 mM in order to obtain final concentrations of 200 μM of H2O2 and 2 mM of ferrous iron and ferric iron.
Cells were then rinsed with PBS 1X at a rate of 100 μl per well then incubated for 30 minutes at 37° C. in a humid atmosphere at 5% CO2 with 100 μl of PBS 1X.
This incubation for 1 h 30 minutes at 37° C. allows intracellular esterases to deacetylate the probe into H2DCF which can be oxidized by the intracellular AOSs into DCF: a fluorescent compound whose formation is proportional to the quantity of intracellular AOSs.
The intensity of fluorescence is read on a cytofluorimeter at λexcitation=485 nm and λemission=530 nm. This reflects the amount of intracellular AOS produced.
The ratio below makes it possible to calculate the % protection against the production of intracellular AOSs for each product concentration tested (because the intensity of fluorescence or IF reflects the release of intracellular AOSs)
• Pre-incubation: 3 h • Number of tests=3 for all compounds. • Number of tests=18 for vit. E

Row | Compound | Induction Factor vs Control (CaCl2 1.2 mM) ABCG1 ([1]; 1 μg/ml) | Induction Factor vs Control (CaCl2 1.2 mM) ABCG1 ([1]; 100 μg/ml) | Percentage inhibition of the intracellular production of AOS ([2]; 0.02 ng/ml) [%] | Percentage inhibition of the intracellular production of AOS ([2]; 0.2 ng/ml) [%] | Percentage inhibition of the intracellular production of AOS ([2]; 2 ng/ml) [%] | Percentage inhibition of the intracellular production of AOS ([2]; 20 ng/ml) [%]
1 | O=C(O)C(F)=CCCCCCCCCCCCO [n=10, R=H, Rn=H, R1=F, 14-hydroxy-tetradec-2-fluoro-2-enoic acid] | 1.4 | 4.6 | 29 | 16 | 0 | −19
2 | O=C(O)/C=C/CCCCCCCCCCCO [n=10, R=H, Rn=H, R1=H, 14-hydroxy-tetradec-2t-enoic acid] | 1.4 | 25.5 | 11 | 4 | −20 | −34
3 | O=C(O)C(F)=CCCCCCO (mixture of isomers) [n=4, R=H, Rn=H, R1=F] | 2.6 | 2.6 | 10 | 6 | −4 | −36
4 | O=C(O)/C=C/CCCCCCCCCCO [n=9, R=H, Rn=H, R1=H, 13-hydroxy-tridec-2t-enoic acid] | 1.5 | 13.8 | 9 | 10 | 6 | −22
5 | O=C(O)C=CCCCCCO [n=4, R=H, Rn=H, R1=H] | 1.2 | 2.5 | 17 | 9 | 9 | 0
6 | O=C(O)/C=C/CCCCCCCCCCCCCCO [n=13, R=H, Rn=H, R1=H, 17-hydroxy-heptadec-2t-enoic acid] | 3.0 | – | 3 | 13 | −1 | −10
7 | O=C(O)C(F)=CCCCCCCCCCCCCCCO [n=13, R=H, Rn=H, R1=F, 17-hydroxy-heptadec-2-fluoro-2-enoic acid] | 4.8 | – | 36 | 28 | 14 | −9
8 | O=C(O)C=CCCCCO [n=3, R=H, Rn=H, R1=H] | 1.5 | 4.0 | 21 | 15 | 11 | 14
